{
  "source": "patent US12338236B2",
  "about": "“Benzoisothiazole and benzoisoxazole compounds for the treatment of mental disorders” (SUVEN LIFE SCIENCES LIMITED, priority 2022, dated 2025)",
  "tested_on": "motor coordination",
  "assay": "Rat rotarod assay",
  "format": "in vivo",
  "settings": "rats, doses of 3 & 10 mg/kg, 60 min prior to trial",
  "procedure": "Example-52: Rat Rotarod Assay\nThe rotarod test was employed to investigate the possible effect of Example-2 on motor coordination. Twenty hours prior to the test, rats were trained to remain on revolving bar (4 rpm) of the rotarod apparatus (TSE Systems; GmHb, Germany). Animals that successfully stayed on rotating rod for 60 seconds (out of 4 trials per animal) were selected for further study. […] A single trial was carried out on the next day. Animals that were able to stay on the rotating rod for 60 seconds were chosen for further study. Animals were administered Example-2 or Vehicle 60 min prior to the trial. The latency to fall from the rotating rod was noted.",
  "note": "Counter-ions that a name gives are not always drawn.",
  "data": [
    {"smiles": "Cc1nnc(-c2csc(OCCCN3CCN(c4nsc5ccccc45)CC3)n2)o1", "note": "[Example-2, 3-(4-{3-[4-(5-Methyl-[1,3,4]oxadiazol-2-yl)-thiazol-2-yloxy]-propyl}-piperazin-1-yl)-benzo[d]isothiazole oxalate]", "values": [
      {"measurement": "Effect on motor coordination (latency to fall from rotating rod)", "value": "No notable effects on motor coordination"}
    ]}
  ]
}
